The text below walks through data of patent US12528802B2, “Heterocyclic compound” (Takeda Pharmaceutical Company Limited, priority 2019, dated 2026).

The target of the test is T1, glucosylceramide synthase (Homo sapiens, UniProt Q16739).
T1 construct: made in house; host or cells: Expi293F cells (transient expression, pcDNA3.3-TOPO vector); microsome fraction used as enzyme source
T1 sequence (Q16739 1-394): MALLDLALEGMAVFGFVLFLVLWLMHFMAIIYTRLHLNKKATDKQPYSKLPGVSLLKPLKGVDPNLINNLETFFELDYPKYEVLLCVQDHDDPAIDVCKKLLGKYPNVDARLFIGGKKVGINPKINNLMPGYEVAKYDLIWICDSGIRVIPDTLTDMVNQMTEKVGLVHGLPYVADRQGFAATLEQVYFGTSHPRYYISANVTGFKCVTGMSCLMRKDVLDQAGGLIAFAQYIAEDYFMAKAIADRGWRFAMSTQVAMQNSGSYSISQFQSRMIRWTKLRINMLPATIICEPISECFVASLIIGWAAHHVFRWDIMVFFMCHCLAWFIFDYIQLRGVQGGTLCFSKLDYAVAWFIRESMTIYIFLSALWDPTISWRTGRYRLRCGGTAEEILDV
Kind of test: Glucosylceramide synthase (GCS) enzyme assay, microsome fraction, C8 glucosylceramide quantified by Rapidfire MS/MS. Conditions: test compound 10 μM, 1.7 μM UDP-glucose, 3 μM C8 ceramide, room temperature 60 min; for inhibition at 10 µM: read-out: GCS enzyme inhibitory rate at 10 μM (%) (% of control). The test is classed as biochemical. The procedure: Glucosylceramide Synthase (GCS) Assay
In enzyme assay, a microsome fraction obtained by transient expression by Expi293F™ cells (catalog number: A14527, Thermo Fisher Scientific) was used as a glucosylceramide synthase source. Liposomal C8 ceramide and UDP-glucose were used as substrates. […] After the enzymatic reaction, the analysis was performed with Rapidfire MS/MS (API-4000™, SCIEX), and C8 glucosylceramide was quantified to evaluate the inhibitory activity of the test compound against glucosylceramide synthase activity.
PcDNA3.3TOPO vector (catalog number: K830001, Thermo Fisher Scientific) into which the human GCS gene was inserted was introduced into Expi293F™ Cells (catalog number: A14527, Thermo Fisher Scientific) by using ExpiFectamine™ 293 Transfection Kit (catalog number: A14525, Thermo Fisher Scientific). The cultured cells were dissolved in D-PBS (catalog number: 048-29805, Fuji Film Wako Pure Chemical Industries, Ltd.) containing 1 mM PMSF, and the solution was allowed to stand on ice for 30 minutes, and then subjected to cell disruption (homogenized). The disruption solution was centrifuged at 10,000×g for 20 minutes at 4° C., and the obtained supernatant was centrifuged at 142,400×g for 60 minutes at 4° C. The obtained precipitate was resuspended in a D-PBS solution containing 1 mM PMSF, and homogenized again to prepare as a microsome fraction. Protein quantification was performed by the CBB method.
A 1 mM compound solution prepared by dissolving the test compound in DMSO was added to a 384-well plate by 100 nL so that the final concentration of the test compound was 10 μM. Next, a substrate solution consisting of 3.4 μM UDP-glucose and 6 μM C8 ceramide was added by 5 μL, followed by an enzyme solution consisting of a 25 μg/mL microsome fraction by 5 μL. C8 ceramide was prepared from liposomes composed of 15 mol % C8 ceramide and 85 mol % dioleoyl phosphatidylcholine (1,2-dioleoyl-sn-glycero-3-phosphocholine: DOPC). The enzymatic reaction was carried out in a solution consisting of 20 mM tris-hydrochloric acid buffer (pH 7.5), 0.01% Tween 20, 0.01% bovine serum albumin and 1 mM dithiothreitol at room temperature for 60 min. Then, a solution consisting of 75% isopropanol and 1% formic acid containing 0.25 μM N-Octadecanoyl-D35-psichosine (catalog number: 1914, Matreya) as an internal standard substance was added by 60 μL to stop the enzymatic reaction. 5 μL of the centrifugal supernatant of the obtained reaction product was analyzed by Rapidfire MS/MS (Agilent Technologies) using API-4000™ (SCIEX), and the C8 glucosylceramide was quantified to evaluate the inhibitory activity of the test compound against the glucosylceramide synthase activity. The inhibitory activity of the test compound was evaluated when the C8 glucosylceramide level in the enzyme-free solution was considered as 100% inhibitory and the enzyme activity of the DMSO group in the absence of the compound was considered as 0% inhibitory.

For `O=C1c2ccnc(-c3ccc(F)cc3OCC(F)(F)F)c2CN1c1ccc(C2(O)CCC2)cc1` [Example 163, 4-[4-fluoro-2-(2,2,2-trifluoroethoxy)phenyl]-2-[4-(1-hydroxycyclobutyl)phenyl]-2,3-dihydro-1H-pyrrolo[3,4-c]pyridin-1-one], the inhibition at 10 µM came out at 100%.
The same measure, in the same setting: for `O=C1c2ccnc(-c3ccccc3OCC(F)(F)F)c2CN1c1ccc(O)cc1` [Example 347, 2-(4-hydroxyphenyl)-4-[2-(2,2,2-trifluoroethoxy)phenyl]-2,3-dihydro-1H-pyrrolo[3,4-c]pyridin-1-one] the value was 76%.
Still for that read-out and setting: then `O=C1c2ccnc(-c3ccccc3N3CCOCC3)c2CN1c1ccc(F)cc1` [Example 30, 2-(4-fluorophenyl)-4-[2-(morpholin-4-yl)phenyl]-2,3-dihydro-1H-pyrrolo[3,4-c]pyridin-1-one], with 91%.
Take `O=C1c2ccnc(-c3ccc(F)cc3OCC(F)(F)F)c2CN1c1ccc(C2(O)CCOC2)c(F)c1` (racemic) [Example 235, rac-2-[3-fluoro-4-(3-hydroxyoxolan-3-yl)phenyl]-4-[4-fluoro-2-(2,2,2-trifluoroethoxy)phenyl]-2,3-dihydro-1H-pyrrolo[3,4-c]pyridin-1-one]: the “GCS enzyme inhibitory rate at 10 μM (%) (% of control)” value was 97%.
As for `O=C1c2ccnc(-c3ccccc3OC(F)F)c2CN1c1ccc(OC(F)(F)F)cn1` [Example 62, 4-[2-(difluoromethoxy)phenyl]-2-[5-(trifluoromethoxy)pyridin-2-yl]-2,3-dihydro-1H-pyrrolo[3,4-c]pyridin-1-one], the inhibition at 10 µM was 95%.
Still for that read-out and setting: for `O=C(c1ccc(-c2nccc3c2CN(c2ccc(OC(F)F)nc2)C3=O)c(OCC(F)(F)F)c1)N1CCC1` [Example 118, 4-[4-(azetidine-1-carbonyl)-2-(2,2,2-trifluoroethoxy)phenyl]-2-[6-(difluoromethoxy)pyridin-3-yl]-2,3-dihydro-1H-pyrrolo[3,4-c]pyridin-1-one] the value was 96%; for `O=C1c2ccnc(-c3ccc(F)cc3OCC(F)(F)F)c2CN1c1ncc(OC(F)F)cn1` [Example 99, 2-[5-(difluoromethoxy)pyrimidin-2-yl]-4-[4-fluoro-2-(2,2,2-trifluoroethoxy)phenyl]-2,3-dihydro-1H-pyrrolo[3,4-c]pyridin-1-one], 92%.
Same read-out and setting: then `O=C1c2ccnc(-c3ccncc3OCC(F)(F)F)c2CN1c1ccc(C2(F)COC2)cc1` [Example 294, 2-[4-(3-fluorooxetan-3-yl)phenyl]-4-[3-(2,2,2-trifluoroethoxy)pyridin-4-yl]-2,3-dihydro-1H-pyrrolo [3,4-c]pyridin-1-one], with 99%.
Consider `CC(C)(O)c1cc2c(c(-c3ccccc3OCC(F)(F)F)n1)CN(c1ccc(OCC(F)(F)F)cc1)C2=O` [Example 343, 6-(2-hydroxypropan-2-yl)-4-[2-(2,2,2-trifluoroethoxy)phenyl]-2-[4-(2,2,2-trifluoroethoxy)phenyl]-2,3-dihydro-1H-pyrrolo[3,4-c]pyridin-1-one], for which the inhibition at 10 µM worked out at 100%.
With `O=C1c2ccnc(-c3ccccc3OCC(F)(F)F)c2CN1c1ccc(C2(F)COC2)cc1` [Example 214, 2-[4-(3-fluorooxetan-3-yl)phenyl]-4-[2-(2,2,2-trifluoroethoxy)phenyl]-2,3-dihydro-1H-pyrrolo[3,4-c]pyridin-1-one], the inhibition at 10 µM was 100%.
Turning to `CC(C)(O)c1ccc(N2Cc3c(ccnc3-c3ccncc3OCC(F)(F)F)C2=O)nc1` [Example 275, 2-[5-(2-hydroxypropan-2-yl)pyridin-2-yl]-4-[3-(2,2,2-trifluoroethoxy)pyridin-4-yl]-2,3-dihydro-1H-pyrrolo [3,4-c]pyridin-1-one], the inhibition at 10 µM is 94%.
Same read-out and setting: then `O=C1c2ccnc(-c3ccc(F)cc3OCC(F)(F)F)c2CN1c1ccc(C(F)(F)F)cn1` [Example 61, 4-[4-fluoro-2-(2,2,2-trifluoroethoxy)phenyl]-2-[5-(trifluoromethyl)pyridin-2-yl]-2,3-dihydro-1H-pyrrolo[3,4-c]pyridin-1-one], with 85%.
Consider `O=C1CCCN1Cc1ccc(N2Cc3c(ccnc3-c3ccc(F)cc3OCC(F)(F)F)C2=O)cc1` [Example 211, 4-[4-fluoro-2-(2,2,2-trifluoroethoxy)phenyl]-2-{4-[(2-oxopyrrolidin-1-yl)methyl]phenyl}-2,3-dihydro-1H-pyrrolo[3,4-c]pyridin-1-one], for which the inhibition at 10 µM is 81%.
For the compound `Cc1nn(-c2ccc(F)cc2OCC(F)(F)F)c2c1C(=O)N(c1ccc(F)cc1)C2` [Example 92, 5-(4-fluorophenyl)-1-[4-fluoro-2-(2,2,2-trifluoroethoxy)phenyl]-3-methyl-5,6-dihydropyrrolo[3,4-c]pyrazol-4(1H)-one], the inhibition at 10 µM was determined as 57%.
As for `O=C1c2ccnc(-c3ccccc3OCC(F)(F)F)c2CN1c1ccc(OC(F)F)cn1` [Example 54, 2-[5-(difluoromethoxy)pyridin-2-yl]-4-[2-(2,2,2-trifluoroethoxy)phenyl]-2,3-dihydro-1H-pyrrolo[3,4-c]pyridin-1-one], the inhibition at 10 µM came out at 100%.
Same read-out and setting: for `O=C1c2ccnc(-c3ccccc3OCC(F)(F)F)c2CN1c1ccc(C2(O)CNC2)cc1` [Example 259, 2-[4-(3-hydroxyazetidin-3-yl)phenyl]-4-[2-(2,2,2-trifluoroethoxy)phenyl]-2,3-dihydro-1H-pyrrolo[3,4-c]pyridin-1-one] the value was 85%; for `O=C(c1ccc(-c2nccc3c2CN(c2ccc(OC(F)F)nc2)C3=O)c(OC(F)F)c1)N1CCC1` [Example 125, 4-[4-(azetidine-1-carbonyl)-2-(difluoromethoxy)phenyl]-2-[6-(difluoromethoxy)pyridin-3-yl]-2,3-dihydro-1H-pyrrolo[3,4-c]pyridin-1-one], 94%.
`O=C1C2=C(CN1c1ccc(OCC(F)(F)F)cc1)C(c1ccc(F)cc1OCC(F)(F)F)=NCCO2` [Example 209, 5-[4-fluoro-2-(2,2,2-trifluoroethoxy)phenyl]-7-[4-(2,2,2-trifluoroethoxy)phenyl]-2,3,6,7-tetrahydro-8H-pyrrolo[3,4-f][1,4]oxazepin-8-one]: the inhibition at 10 µM turned out to be 98%.
Same read-out and setting: for `COc1cccc(F)c1-c1nccc2c1CN(c1ccc(F)cc1)C2=O` [Example 142, 4-(2-fluoro-6-methoxyphenyl)-2-(4-fluorophenyl)-2,3-dihydro-1H-pyrrolo[3,4-c]pyridin-1-one] the value was 77%; for `O=C(c1ccc(-c2nccc3c2CN(c2ccc(OC(F)F)cc2)C3=O)c(OC(F)F)c1)N1CCC1` [Example 124, 4-[4-(azetidine-1-carbonyl)-2-(difluoromethoxy)phenyl]-2-[4-(difluoromethoxy)phenyl]-2,3-dihydro-1H-pyrrolo[3,4-c]pyridin-1-one], 98%.
As for `O=C1c2ccnc(-c3ccc(F)cc3OCC(F)(F)F)c2CN1c1ccc(C2(O)CCOC2)c(F)c1` (racemic) [Example 238, rac-2-[3-fluoro-4-(3-hydroxyoxolan-3-yl)phenyl]-4-[4-fluoro-2-(2,2,2-trifluoroethoxy)phenyl]-2,3-dihydro-1H-pyrrolo[3,4-c]pyridin-1-one], the “GCS enzyme inhibitory rate at 10 μM (%) (% of control)” value came to 95%.
For `Cc1cc2c(c(-c3ccccc3OCC(F)(F)F)n1)CN(c1ccc(C(F)(F)CO)cc1)C2=O` [Example 338, 2-[4-(1,1-difluoro-2-hydroxyethyl)phenyl]-6-methyl-4-[2-(2,2,2-trifluoroethoxy)phenyl]-2,3-dihydro-1H-pyrrolo [3,4-c]pyridin-1-one], the inhibition at 10 µM was 100%.
